Test results from paper PMC5923120, “Acylhydrazones as Antifungal Agents Targeting the Synthesis of Fungal Sphingolipids” (Antimicrobial Agents and Chemotherapy, 2018).
In brackets after ≈: the same amount, converted by molar mass.

Columns and labels:
C. neoformans = experiment: In vitro killing assay; conditions: minimum concentration that kills 100% of C. neoformans cells in 48 h
Protocol: C. neoformans cells from a culture grown overnight were washed in PBS and resuspended in YNB buffered with HEPES at pH 7.4. The cells were counted, and 2 × 10^4 cells were incubated with different concentrations of the drugs in a final volume of 10 ml with a final concentration of 0.5% DMSO. The tubes were then incubated at 37°C with 5% CO2 on a rotary shaker at 200 rpm. Aliquots were taken at the time points indicated and diluted, and 100-µl portions were plated onto YPD plates.

J774 = experiment: In vitro toxicity (MTT), J774; type: cell-based, murine; conditions: Mus musculus, cytotoxicity
Protocol: (§1) The murine macrophage cell line J774 and human cancer cell lines A549 and HepG2 were maintained in DMEM containing 10% fetal bovine serum (FBS) and 1% penicillin-streptomycin. At passage 7, 10^5 cells/well in DMEM containing 10% FBS were transferred into 96-well plates and cultured for 14 h for the cells to adhere to the wells. The compounds were added to the cells at concentrations ranging from 0.03 to 128 μg/ml. The wells without the compound served as controls. […] After 24 or 48 h, the supernatant was removed and 50 μl of 5-mg/ml 3-(4,5-dimethylthiazol-2-yl)-2,5-diphenyltetrazoliumbromide (MTT) solution in phosphate-buffered saline (PBS) was added to each well. The plates were incubated for an additional 4 h. The formazan crystal formed inside the cell was dissolved by adding 50 μl of dimethyl sulfoxide (DMSO). The optical density was measured at 570 nm.

[1] = molecular target: human ether-a-go-go-related gene (hERG) potassium channel (Homo sapiens, UniProt Q12809); experiment: hERG patch clamp assay; type: cell-based
in vitro [2] = conditions: human, microsomes; for remaining at 0 h, 2 μM: % remaining at 0 min; for remaining at 0.25 h, 2 μM: % remaining at 15 min; for remaining at 0.5 h, 2 μM: % remaining at 30 min; for remaining at 0.75 h, 2 μM: % remaining at 45 min; for remaining at 1 h, 2 μM: % remaining at 60 min
Protocol: (§2) To test for metabolic stability, 40 μl of 10 mM NADPH solution was added to each well of a 96-well plate. The final concentration of NADPH was 1 mM. The mixture was prewarmed at 37°C for 5 min. The negative-control samples were prepared by replacing NADPH solutions with 40 μl of ultrapure H2O. The negative control was used to exclude the misleading factor that resulted from the instability of the chemical itself. Samples with NADPH were prepared in duplicate. Negative controls were prepared in singlet. The reaction was started with the addition of 4 μl of 200 μM control compound or test compound solutions. […] An aliquot of 90 μl of the supernatant was mixed with 90 μl of ultrapure H2O and then used for LC-MS/MS analysis.

in vitro [3] = conditions: monkey
Description: A commercially available kit was used to examine permeability through the blood-brain barrier (BBB kit MBT-24; Pharmaco Cell Co. Ltd.). This kit allows us to perform a permeability assay using an in vitro reproduction of the blood-brain barrier using monkey brain. Briefly, in a 12-well plate there is a triple culture, with endothelial cells in the luminal part and perycites and astrocytes in the abluminal side connected by tight junctions. The luminal side of the well represents the blood side, whereas the abluminal side represents the brain side. The integrity of the blood-brain barrier is assessed by the measurement of TEER, which indicates the formation of tight junctions. To have an efficient system, the TEER should be >150 Ω cm^2. The kit is kept frozen at −80°C until it is ready to use. […] After that it takes 3 days for the cells to adjust, and then the plate can be used in 4 days for the experiment. For drug testing, after assessing the TEER, the drugs were added in the chosen medium at the desired concentrations and at different time points. At the end of each time point the TEER was measured to assess if the BBB was still intact. After that the medium was collected and subjected to MS to measure the concentration of the samples in the brain side and calculate the permeability value (Papp).

HepG2 = experiment: In vitro toxicity (MTT), HepG2; type: cell-based; conditions: Homo sapiens, cytotoxicity
Protocol: as §1

[4] = Pharmacokinetic studies (plasma concentration); type: in vivo, mice
Protocol: For i.p. study, BHBM and D13 were dissolved in a mixture of cremophore-ethanol (1:1) to prepare a 10-mg/ml stock solution. The stock solution was diluted in PBS to obtain 200-μg/ml and 400-μg/ml solutions for i.p. administrations in C3H/HeN mice (n = 3). The compounds were administered to control (healthy) mice or immunocompromised mice infected with P. murina at doses of 0.8 mg/kg and 1.6 mg/kg via tail vein injection or intraperitoneal injection in a final volume of 100 μl. The mice were sacrificed and blood samples were collected predose and 0.5, 1, 2, 4, 8, 12, and 24 h after administration into K2EDTA-containing tubes. The samples were centrifuged immediately, and plasma was collected and stored at −80°C until bioanalysis. Plasma samples were extracted using methylene chloride.
Briefly, 50 μl of the plasma sample was taken into a glass vial, and 10 μl of internal standard N′-(3-bromobenzylidene)-4-hydroxybenzohydrazide was added. After the contents of the glass vial were mixed, 1 ml of methylene chloride was added to the vial and the samples were vortex mixed for 30 s, followed by centrifugation for 5 min. Eight hundred microliters of supernatant then was transferred to another tube and evaporated to dryness using a centrifugal evaporator. The residue was reconstituted in 100 μl acetonitrile-water (50:50) solution, mixed, and transferred to mass spectrometry vials. Separation was performed under isocratic reverse-phase chromatographic conditions using a Waters XBridge C18 column (3.5 μm; 2.1 by 100 mm) (Waters, Milford, MA), a Finnigan Surveyor MS pump (Thermo Fisher Scientific), and a Finnigan Micro AS autosampler (Thermo Fisher Scientific).
The mobile phase consisted of water-acetonitrile with 0.1% formic acid (50:50) run at a flow rate of 200 μl/min. Five-microliter aliquots then were analyzed using an LTQ-FT liquid chromatography-tandem mass spectrometer (LC-MS/MS) with the electrospray source in the positive ion mode (Thermo Fisher Scientific). For i.v. and p.o. administration, the formulation consisted of a 0.5-mg/ml solution of PEG 400-DMA (9:1). A volume of 1.21 mg of D13 was dissolved in 0.242 ml of […] (DMA) by vortexing and sonication, and then 2.178 ml of PEG440 was added with vortexing and sonication until a clear solution was obtained. For a 4-mg/ml solution of PEG 400-DMA (9:1), 2.13 mg of D13 was dissolved in 0.053 ml of DMA by vortexing and sonication, and then 0.479 ml of PEG 440 was added with vortexing and sonication until a clear solution was obtained. For i.v. and p.o. administration of BHBM, the formulation consisted of a 0.5-mg/ml solution of 5% DMSO and 5% solutol in water. A volume of 0.98 mg of BHBM was dissolved in 0.098 ml of DMSO with vortexing and sonication. […]

in vitro [5] = conditions: mouse, microsomes; for remaining at 0 h, 2 μM: % remaining at 0 min; for remaining at 0.25 h, 2 μM: % remaining at 15 min; for remaining at 0.5 h, 2 μM: % remaining at 30 min; for remaining at 0.75 h, 2 μM: % remaining at 45 min; for remaining at 1 h, 2 μM: % remaining at 60 min
Protocol: as §2

A549 = experiment: In vitro toxicity (MTT), A549; type: cell-based; conditions: Homo sapiens, cytotoxicity
Protocol: as §1

Chain of human ether-a-go-go-related gene (hERG) potassium channel (Q12809 whole entry): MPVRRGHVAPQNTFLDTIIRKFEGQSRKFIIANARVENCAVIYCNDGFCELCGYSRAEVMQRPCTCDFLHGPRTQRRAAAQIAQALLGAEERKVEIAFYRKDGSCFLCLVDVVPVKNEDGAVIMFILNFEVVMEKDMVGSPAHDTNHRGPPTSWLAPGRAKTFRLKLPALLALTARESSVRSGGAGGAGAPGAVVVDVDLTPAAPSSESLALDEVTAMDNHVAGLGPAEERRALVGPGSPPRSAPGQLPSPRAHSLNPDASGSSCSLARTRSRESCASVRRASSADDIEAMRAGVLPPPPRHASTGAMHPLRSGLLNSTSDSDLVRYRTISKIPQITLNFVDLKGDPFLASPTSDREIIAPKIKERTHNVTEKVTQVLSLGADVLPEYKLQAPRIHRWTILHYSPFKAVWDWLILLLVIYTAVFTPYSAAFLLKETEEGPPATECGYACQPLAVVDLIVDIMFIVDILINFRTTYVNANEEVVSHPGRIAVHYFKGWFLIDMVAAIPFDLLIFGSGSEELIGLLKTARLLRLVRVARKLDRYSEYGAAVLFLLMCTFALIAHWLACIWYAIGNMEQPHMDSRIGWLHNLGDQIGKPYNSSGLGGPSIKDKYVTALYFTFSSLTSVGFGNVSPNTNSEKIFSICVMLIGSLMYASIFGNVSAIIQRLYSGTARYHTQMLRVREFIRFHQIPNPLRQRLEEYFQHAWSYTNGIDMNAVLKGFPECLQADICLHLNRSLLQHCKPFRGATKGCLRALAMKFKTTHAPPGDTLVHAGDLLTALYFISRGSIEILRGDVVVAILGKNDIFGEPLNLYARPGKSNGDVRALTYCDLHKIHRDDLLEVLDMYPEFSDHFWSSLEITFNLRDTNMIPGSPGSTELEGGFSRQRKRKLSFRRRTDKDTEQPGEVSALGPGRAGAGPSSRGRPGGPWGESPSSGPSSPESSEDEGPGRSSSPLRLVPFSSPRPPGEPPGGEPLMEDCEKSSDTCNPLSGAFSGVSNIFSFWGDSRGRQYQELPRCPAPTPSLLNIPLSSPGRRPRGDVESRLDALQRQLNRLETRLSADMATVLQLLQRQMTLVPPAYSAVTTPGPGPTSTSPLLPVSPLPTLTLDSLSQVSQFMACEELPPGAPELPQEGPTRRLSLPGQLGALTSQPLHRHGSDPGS

## Cc1ccccc1C(=O)N/N=C/c1cc(Br)ccc1O [BHBM, (E)-N′-(3-bromo-6-hydroxybenzylidene)-2-methylbenzohydrazide]
C. neoformans
  K100*: >1 µg/mL
J774
  IC50: 16 µg/mL (≈ 48 µM)
[1]
  IC50: 11.5 µM
In vitro [2]
  half-life at 2 μM: 0.814 h
  microsomal CLint at 2 μM: 28.4 µL/min/mg
In vitro [2]; with NADPH
  remaining at 0 h, 2 μM: 100%
  remaining at 0.25 h, 2 μM: 83.2%
  remaining at 0.5 h, 2 μM: 62.5%
  remaining at 0.75 h, 2 μM: 51.3%
In vitro [2]; without NADPH
  remaining at 0 h, 2 μM: 100%
  remaining at 0.25 h, 2 μM: 101%
  remaining at 0.5 h, 2 μM: 88.5%
  remaining at 0.75 h, 2 μM: 81.2%
  remaining at 1 h, 2 μM: 82.7%
In vitro [3]
  Papp at 5 min: 22 ×10⁻⁶ cm/s
  Papp at 15 min: 9 ×10⁻⁶ cm/s
  Papp at 30 min: 9 ×10⁻⁶ cm/s
HepG2
  IC50: 32 µg/mL (≈ 96 µM)
[4]; i.p. administration
  time up to which detected in plasma: ≤ 4 h
[4]; i.v. injection
  time up to which detected in plasma: 8 h
[4]; i.v., reached within the first hour and remained for about 8 h
  plasma concentration: 10 ng/mL
In vitro [5]
  half-life at 2 μM: 0.122 h
  microsomal CLint at 2 μM: 189 µL/min/mg
In vitro [5]; with NADPH
  remaining at 0 h, 2 μM: 100%
  remaining at 0.25 h, 2 μM: 25.3%
  remaining at 0.5 h, 2 μM: 4.93%
  remaining at 0.75 h, 2 μM: 1.52%
In vitro [5]; without NADPH
  remaining at 0 h, 2 μM: 100%
  remaining at 0.25 h, 2 μM: 109%
  remaining at 0.5 h, 2 μM: 89.9%
  remaining at 0.75 h, 2 μM: 86.3%
  remaining at 1 h, 2 μM: 84.1%
A549
  IC50: 32 µg/mL (≈ 96 µM)

## O=C(N/N=C/c1cc(Br)cc(Br)c1O)c1ccc(Br)cc1 [D13]
C. neoformans
  K100*: 0.5 µg/mL
J774
  IC50: 16 µg/mL (≈ 33.5 µM)
[1]
  IC50: > 30 µM
In vitro [2]
  half-life at 2 μM: 1.72 h
  microsomal CLint at 2 μM: 13.4 µL/min/mg
In vitro [2]; with NADPH
  remaining at 0 h, 2 μM: 100%
  remaining at 0.25 h, 2 μM: 83.9%
  remaining at 0.5 h, 2 μM: 73%
  remaining at 0.75 h, 2 μM: 73.1%
  remaining at 1 h, 2 μM: ~60%
In vitro [2]; without NADPH
  remaining at 0 h, 2 μM: 100%
  remaining at 0.25 h, 2 μM: 96.5%
  remaining at 0.5 h, 2 μM: 86.5%
  remaining at 0.75 h, 2 μM: 81.9%
  remaining at 1 h, 2 μM: 88.9%
In vitro [3]
  Papp at 5 min: 6.8 ×10⁻⁶ cm/s
  Papp at 15 min: 2.2 ×10⁻⁶ cm/s
  Papp at 30 min: 1.1 ×10⁻⁶ cm/s
HepG2
  IC50: > 128 µg/mL
[4]; i.p. administration
  time up to which detected in plasma: ≥ 20 h
In vitro [5]
  half-life at 2 μM: 1.48 h
  microsomal CLint at 2 μM: 15.7 µL/min/mg
In vitro [5]; with NADPH
  remaining at 0 h, 2 μM: 100%
  remaining at 0.25 h, 2 μM: 80.8%
  remaining at 0.5 h, 2 μM: 69.3%
  remaining at 0.75 h, 2 μM: 64.6%
  remaining at 1 h, 2 μM: ~60%
In vitro [5]; without NADPH
  remaining at 0 h, 2 μM: 100%
  remaining at 0.25 h, 2 μM: 90.7%
  remaining at 0.5 h, 2 μM: 88.1%
  remaining at 0.75 h, 2 μM: 82.8%
  remaining at 1 h, 2 μM: 80.8%
A549
  IC50: > 128 µg/mL
